This data set is described as follows: Absorption of the solution of coated or uncoated riboflavin in water (coloration/release). To be noted: amount containing 10 mg riboflavin dissolved in 1000 ml water for 15 min; measured at 545 nm, spectrophotometer. It counts as physicochemical. The method, then: 80 g granulated Riboflavin was successively coated with 9% Na-alginate, 1% Ca-Chloride and 25% shellac using a WFP-mini fluid bed processor (DMR) in Wurster configuration. 89 g coated product with particle size between 250 and 1000 μm was obtained. Coating material was 35% of the particle mass, riboflavin content 50%. 20 mg of coated powder (containing 10 mg of Riboflavin) was dissolved in 1000 ml water for 15 min. Absorption of the solution was measured at 545 nm using a spectrophotometer (Genesys 20, thermo Scientific). Absorption of the solution was 0.065.
10 mg of riboflavin powder was dissolved in 1000 ml water for 15 min. Absorption of the solution was measured at 545 nm using a spectrophotometer (Genesys 20, thermo Scientific). Absorption of the solution was 0.386.
80 g granulated Riboflavin was coated with 60 g Eudragit FS30D and 10 g PIasACRYL T20 using a WFP-mini fluid bed processor (DMR) in Wurster configuration. 71 g coated product with particle size between 250 and 1000 μm was obtained. Coating material was ca. 20% of the particle mass, riboflavin content was 60%. 16.6 mg of coated powder (containing 10 mg of Riboflavin) was dissolved in 1000 ml water for 15 min. Absorption of the solution was measured at 545 nm using a spectrophotometer (Genesys 20, thermo Scientific). Absorption of the solution was 0.087.

On to `Cc1cc2nc3c(=O)[nH]c(=O)nc-3n(C[C@H](O)[C@H](O)[C@H](O)CO)c2cc1C` [Comparison Example 2, riboflavin], for which the “Absorption of the solution” value turned out to be 0.386.
